18 molecules from the supplement of paper PMC8967900 can be followed below.
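Note: ALL cell lines in 384-well plates, five doses spanning 10,000-fold, each plate scaled between vehicle and 100 µmol/L benzalkonium chloride controls, sDSS an adapted area-under-curve metric.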

In one test the test system is MN-60. The test is described as follows: selective drug sensitivity score (sDSS, relative to normal bone marrow) (sDSS (score)); higher = more potent and effective on the cell line relative to normal bone marrow cells. The settings on record: 72 h.
Consider `Oc1ncnc2[nH]ncc12` [Allopurinol] (top concentration 10000 nM), for which the “selective drug sensitivity score” value was -0.64.

Take `CC(C)n1cnc2c(NCCc3ccc(O)cc3)nc(-c3csc4ccccc34)nc21` [StemRegenin_1] (top concentration 10000 nM): the “selective drug sensitivity score” value amounted to 2.7.

With `C#Cc1cccc(Nc2ncnc3cc4c(cc23)OCCOCCOCCO4)c1` [Icotinib] (top concentration 10000 nM), the “selective drug sensitivity score” value came to 0.6.

As for `CN[C@@H](C)C(=O)N[C@H]1CN(C(=O)CC(C)C)CC[C@H]2CC[C@@H](C(=O)NC(c3ccccc3)c3ccccc3)N2C1=O` [AT-406] (top concentration 10000 nM), the “selective drug sensitivity score” value is -1.26.

For the molecule `CC(C)(O)CC(=O)NCCn1ccc2ncnc(Nc3ccc(Oc4cccc(C(F)(F)F)c4)c(Cl)c3)c21` [TAK-285] (top concentration 2500 nM), the “selective drug sensitivity score” value was 0.

In the case of `COc1cc(C)[nH]c(=O)c1CNC(=O)c1c(C)n([C@H](C)C2CCOCC2)c2ccccc12` [CPI-360] (top concentration 10000 nM), the “selective drug sensitivity score” value was found to be 0.

Take `Cc1cc2c(C(=O)NC[C@H](C)c3ccccc3)c(O)c(O)cc2c(O)c1-c1c(C)cc2c(C(=O)NC[C@H](C)c3ccccc3)c(O)c(O)cc2c1O` [Sabutoclax] (top concentration 25000 nM): the “selective drug sensitivity score” value came out at 13.

Turning to `CC(C)(C)C[C@@H]1N[C@@H](C(=O)N[C@H]2CC[C@H](O)CC2)[C@H](c2cccc(Cl)c2F)[C@]12C(=O)Nc1cc(Cl)ccc12` (top concentration 10000 nM), the “selective drug sensitivity score” value is -0.74.

`C[C@@H]1C[C@H]2[C@@H]3CCC4=CC(=O)C=C[C@]4(C)[C@@]3(F)[C@@H](O)C[C@]2(C)[C@@]1(O)C(=O)CO` [Dexamethasone] (top concentration 10000 nM): the “selective drug sensitivity score” value is -0.52.

The next test has as its system MOLT-14. The description is as above. As to conditions: 72 h.
`Nc1nc2cc(-c3ccc4ncc(C(=O)N5CCOCC5)n4c3)ccc2o1` [Serabelisib] (top concentration 10000 nM): the “selective drug sensitivity score” value came out at 0.96.

Turning to `COc1cccc(-c2ccc(NC(=O)C3=C(C(=O)O)CCC3)c(F)c2)c1` [Vidofludimus] (top concentration 10000 nM), the “selective drug sensitivity score” value was 3.5.

With `Cc1cccc(-c2nn3c(c2-c2ccnc4ccc(C(N)=O)cc24)CCC3)n1` [Galunisertib] (top concentration 1000 nM), the “selective drug sensitivity score” value is 0.

Turning to `COc1cc2c(N3CCN(C(=O)Nc4ccc(OC(C)C)cc4)CC3)ncnc2cc1OCCCN1CCCCC1` [Tandutinib] (top concentration 1000 nM), the “selective drug sensitivity score” value was 0.

In the case of `Cc1c(F)cc(C(=O)NC2CC2)cc1-c1ccc(C(=O)NCC(C)(C)C)cn1` [Losmapimod] (top concentration 10000 nM), the “selective drug sensitivity score” value was -0.18.

In the case of `Nc1nc(N)c2nc(-c3cccc(O)c3)c(-c3cccc(O)c3)nc2n1` [TG100-115] (top concentration 10000 nM), the “selective drug sensitivity score” value was -0.4.

On to `C[C@]12CC[C@@H]3c4ccc(O)cc4C[C@@H](CCCCCCCCC[S+]([O-])CCCC(F)(F)C(F)(F)F)[C@H]3[C@@H]1CC[C@@H]2O` (stereo not given in full) [Fulvestrant] (top concentration 1000 nM), for which the “selective drug sensitivity score” value is 0.

Take `O=C(Nc1cccnc1)N1CCC(Cc2cccc(Oc3ccc(C(F)(F)F)cn3)c2)CC1` [PF-3845] (top concentration 10000 nM): the “selective drug sensitivity score” value is 2.26.

As to `COc1cc2c(cc1OCCCN1CCCC1)N=C(N)C21CCC1` [A-366] (top concentration 25000 nM), the “selective drug sensitivity score” value stood at 3.16.

`Oc1ncnc2[nH]ncc12` [Allopurinol] (top concentration 10000 nM): the “selective drug sensitivity score” value is -0.64.

Consider `CC(C)n1cnc2c(NCCc3ccc(O)cc3)nc(-c3csc4ccccc34)nc21` [StemRegenin_1] (top concentration 10000 nM), for which the “selective drug sensitivity score” value was -0.2.

For the molecule `C#Cc1cccc(Nc2ncnc3cc4c(cc23)OCCOCCOCCO4)c1` [Icotinib] (top concentration 10000 nM), the “selective drug sensitivity score” value worked out at 0.

On to `CN[C@@H](C)C(=O)N[C@H]1CN(C(=O)CC(C)C)CC[C@H]2CC[C@@H](C(=O)NC(c3ccccc3)c3ccccc3)N2C1=O` [AT-406] (top concentration 10000 nM), for which the “selective drug sensitivity score” value was -1.26.

As to `CC(C)(O)CC(=O)NCCn1ccc2ncnc(Nc3ccc(Oc4cccc(C(F)(F)F)c4)c(Cl)c3)c21` [TAK-285] (top concentration 2500 nM), the “selective drug sensitivity score” value turned out to be 0.

Regarding `COc1cc(C)[nH]c(=O)c1CNC(=O)c1c(C)n([C@H](C)C2CCOCC2)c2ccccc12` [CPI-360] (top concentration 10000 nM), the “selective drug sensitivity score” value amounted to 0.

Turning to `Cc1cc2c(C(=O)NC[C@H](C)c3ccccc3)c(O)c(O)cc2c(O)c1-c1c(C)cc2c(C(=O)NC[C@H](C)c3ccccc3)c(O)c(O)cc2c1O` [Sabutoclax] (top concentration 25000 nM), the “selective drug sensitivity score” value turned out to be 16.8.

`CC(C)(C)C[C@@H]1N[C@@H](C(=O)N[C@H]2CC[C@H](O)CC2)[C@H](c2cccc(Cl)c2F)[C@]12C(=O)Nc1cc(Cl)ccc12` (top concentration 10000 nM): the “selective drug sensitivity score” value was found to be 9.56.

As for `C[C@@H]1C[C@H]2[C@@H]3CCC4=CC(=O)C=C[C@]4(C)[C@@]3(F)[C@@H](O)C[C@]2(C)[C@@]1(O)C(=O)CO` [Dexamethasone] (top concentration 10000 nM), the “selective drug sensitivity score” value was -1.52.

The subject of the next test is NALL-1. The test is described as above. The settings on record: 72 h.
Regarding `Nc1nc2cc(-c3ccc4ncc(C(=O)N5CCOCC5)n4c3)ccc2o1` [Serabelisib] (top concentration 10000 nM), the “selective drug sensitivity score” value is -0.64.

As to `COc1cccc(-c2ccc(NC(=O)C3=C(C(=O)O)CCC3)c(F)c2)c1` [Vidofludimus] (top concentration 10000 nM), the “selective drug sensitivity score” value was 1.9.

In the case of `Cc1cccc(-c2nn3c(c2-c2ccnc4ccc(C(N)=O)cc24)CCC3)n1` [Galunisertib] (top concentration 1000 nM), the “selective drug sensitivity score” value came out at 0.

`COc1cc2c(N3CCN(C(=O)Nc4ccc(OC(C)C)cc4)CC3)ncnc2cc1OCCCN1CCCCC1` [Tandutinib] (top concentration 1000 nM): the “selective drug sensitivity score” value turned out to be 0.

As for `Cc1c(F)cc(C(=O)NC2CC2)cc1-c1ccc(C(=O)NCC(C)(C)C)cn1` [Losmapimod] (top concentration 10000 nM), the “selective drug sensitivity score” value was -0.18.

As for `Nc1nc(N)c2nc(-c3cccc(O)c3)c(-c3cccc(O)c3)nc2n1` [TG100-115] (top concentration 10000 nM), the “selective drug sensitivity score” value turned out to be 4.6.

Take `C[C@]12CC[C@@H]3c4ccc(O)cc4C[C@@H](CCCCCCCCC[S+]([O-])CCCC(F)(F)C(F)(F)F)[C@H]3[C@@H]1CC[C@@H]2O` (stereo not given in full) [Fulvestrant] (top concentration 1000 nM): the “selective drug sensitivity score” value turned out to be 1.6.

For `O=C(Nc1cccnc1)N1CCC(Cc2cccc(Oc3ccc(C(F)(F)F)cn3)c2)CC1` [PF-3845] (top concentration 10000 nM), the “selective drug sensitivity score” value was -1.24.

As for `COc1cc2c(cc1OCCCN1CCCC1)N=C(N)C21CCC1` [A-366] (top concentration 25000 nM), the “selective drug sensitivity score” value is -1.84.

On to `Oc1ncnc2[nH]ncc12` [Allopurinol] (top concentration 10000 nM), for which the “selective drug sensitivity score” value is -0.64.

Regarding `CC(C)n1cnc2c(NCCc3ccc(O)cc3)nc(-c3csc4ccccc34)nc21` [StemRegenin_1] (top concentration 10000 nM), the “selective drug sensitivity score” value is -1.4.

For `C#Cc1cccc(Nc2ncnc3cc4c(cc23)OCCOCCOCCO4)c1` [Icotinib] (top concentration 10000 nM), the “selective drug sensitivity score” value amounted to 6.5.

As for `CN[C@@H](C)C(=O)N[C@H]1CN(C(=O)CC(C)C)CC[C@H]2CC[C@@H](C(=O)NC(c3ccccc3)c3ccccc3)N2C1=O` [AT-406] (top concentration 10000 nM), the “selective drug sensitivity score” value was 5.34.

`CC(C)(O)CC(=O)NCCn1ccc2ncnc(Nc3ccc(Oc4cccc(C(F)(F)F)c4)c(Cl)c3)c21` [TAK-285] (top concentration 2500 nM): the “selective drug sensitivity score” value turned out to be 0.1.

For the molecule `COc1cc(C)[nH]c(=O)c1CNC(=O)c1c(C)n([C@H](C)C2CCOCC2)c2ccccc12` [CPI-360] (top concentration 10000 nM), the “selective drug sensitivity score” value stood at 0.

In the case of `Cc1cc2c(C(=O)NC[C@H](C)c3ccccc3)c(O)c(O)cc2c(O)c1-c1c(C)cc2c(C(=O)NC[C@H](C)c3ccccc3)c(O)c(O)cc2c1O` [Sabutoclax] (top concentration 25000 nM), the “selective drug sensitivity score” value is -8.22.

Turning to `CC(C)(C)C[C@@H]1N[C@@H](C(=O)N[C@H]2CC[C@H](O)CC2)[C@H](c2cccc(Cl)c2F)[C@]12C(=O)Nc1cc(Cl)ccc12` (top concentration 10000 nM), the “selective drug sensitivity score” value was -7.64.

On to `C[C@@H]1C[C@H]2[C@@H]3CCC4=CC(=O)C=C[C@]4(C)[C@@]3(F)[C@@H](O)C[C@]2(C)[C@@]1(O)C(=O)CO` [Dexamethasone] (top concentration 10000 nM), for which the “selective drug sensitivity score” value stood at 34.1.
